Data as given in ChEMBL document CHEMBL5257084, “Novel inhibitors of Rickettsia prowazekii methionine aminopeptidase from the Malaria Box” (Bioorg Med Chem Lett, 2023).

Experiments:
[1] = Inhibition of Rickettsia prowazekii Methionine aminopeptidase 1; assay type: single protein
Rickettsia prowazekii = assay: Inhibition of Rickettsia prowazekii Methionine aminopeptidase 1 at 10 uM relative to control

Structure (SMILES) | IC50 [1] [µM] | inhibition (Rickettsia prowazekii) [%]
COc1ccc(/C=C2\SC(=N)N(c3ccccc3OC)C2=O)cc1 | 4.4 | > 50
O=C(O)c1ccc(-c2ccccc2Cl)o1 | 2.4 | –
COc1ccc(-c2c(C)nn3c(N)c(C#N)cnc23)cc1OC | 9 | > 50
CC(C)OCc1cc(CN2CCN(c3cccc(Cl)c3)CC2)c(O)c2ncccc12 | 3.8 | > 50
O=C(NC(c1ccccc1)c1ccc2cccnc2c1O)c1ccccc1 (stereo not given) | 12 | > 50
c1ccc(Cn2c(/N=N/c3c(Nc4ccccc4)ccc4ccccc34)nc3ccccc32)cc1 | 1.9 | > 50
O=C(NCC(c1ccsc1)N1CCCCCC1)c1ccc(C(F)(F)F)cc1 (stereo not given) | 15 | > 50
CCCc1c(CC)c(=N)c2ccccc2n1C | 1.6 | > 50
COc1cccc(NC(=O)[C@H](C(C)C)n2c(=O)[nH]c3ccccc3c2=O)c1 | 22 | > 50
COc1ccc(C2=C(c3ccc(OC)cc3)C3(c4ccccc4)C(=O)C2(c2ccccc2)C2C(=O)N(c4ccc(C)cc4)C(=O)C23)cc1 (stereo not given) | 4 | > 50
CCn1c(CN2CCN(Cc3ccccc3)CC2)nc2cc(NC(=O)c3cccs3)ccc21 | 9 | > 50
Cc1ccc(N2C3c4ccccc4N(S(=O)(=O)c4ccc(C)cc4)C2c2ccccc2N3S(=O)(=O)c2ccc(C)cc2)cc1 | 0.8 | > 50
CSC1=N/C(=N\c2c(C)cccc2C)C2(CCC(C(C)(C)C)CC2)N1c1ccc(Cl)cc1 (stereo not given) | 9 | > 50
